In the assay the target is T1, Human factor D (Homo sapiens, UniProt P00746).
T1 construct: purified from human serum; purchased Complement Technology, Inc; host or cells: human serum
T1 sequence (P00746 26-253): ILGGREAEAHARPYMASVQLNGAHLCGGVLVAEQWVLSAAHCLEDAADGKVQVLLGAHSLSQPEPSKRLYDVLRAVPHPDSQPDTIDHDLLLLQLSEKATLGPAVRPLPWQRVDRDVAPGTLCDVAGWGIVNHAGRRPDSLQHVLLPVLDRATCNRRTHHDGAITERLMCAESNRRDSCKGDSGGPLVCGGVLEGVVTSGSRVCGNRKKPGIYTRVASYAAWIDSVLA
Kind of assay: Human Factor D Assay. In kind it is biochemical. Particulars: Human factor D 80 nM, substrate Z-L-Lys-SBzl and DTNB, pH 7.5. The method, then: Other standard factor D inhibition assays are also available.
Human factor D (purified from human serum, Complement Technology, Inc.) at 80 nM final concentration is incubated with test compound at various concentrations for 5 minutes at room temperature in 50 mM Tris, 1M NaCl, pH 7.5. A synthetic substrate Z-L-Lys-SBzl and DTNB (Ellman's reagent) are added to final concentrations of 100 μM each. The increase in color is recorded at OD405 nm in a microplate in kinetic mode over 30 minutes with 30 second time points in a spectrofluorimeter. IC50 values are calculated by non-linear regression from the percentage of inhibition of complement factor D activity as a function of test compound concentration.
In the case of `NC(=O)n1cc(NC(=O)N2C[C@H](F)C[C@H]2c2ncc(-c3cccc(Br)n3)[nH]2)c2ccccc21` [Compound 12, 3-((2S,4R)-2-(5-(6-bromopyridin-2-yl)-1H-imidazol-2-yl)-4-fluoropyrrolidine-1-carboxamido)-1H-indole-1-carboxamide], the IC50 (commonly the concentration needed to halve the response being measured) was in the range of 1000 to 10000 nM.
Under `C=C[C@@H]1C[C@]1(NC(=O)[C@@H]1C[C@@H](F)CN1C(=O)Cn1cc(C(C)=O)c2ccc(O)cc21)C(=O)NS(=O)(=O)C1CC1` [Compound 64, (2S,4R)-1-(2-(3-acetyl-6-hydroxy-1H-indol-1-yl)acetyl)-N-((1R,2S)-1-(cyclopropylsulfonyl-carbamoyl)-2-vinylcyclopropyl)-4-fluoropyrrolidine-2-carboxamide] stands 1000 to 10000 nM; under `COc1cccc2c1c(C(C)=O)cn2CC(=O)N1C[C@H](F)C[C@H]1C(=O)Nc1cccc(-c2ccccc2Cl)c1F` [Compound 96, (2S,4R)-1-(2-(3-acetyl-4-methoxy-1H-indol-1-yl)acetyl)-N-(2′-chloro-2-fluorobiphenyl-3-yl)-4-fluoropyrrolidine-2-carboxamide], 1000 to 10000 nM; under `[2H]C([2H])(NC(=O)[C@@H]1C[C@H]2C[C@H]2N1C(=O)Cn1nc(C(N)=O)c2ccncc21)c1cccc(Cl)c1F` [Compound 127, (1R,3S,5R)-2-(2-(3-carbamoyl-1H-pyrazolo[3,4-c]pyridin-1-yl)acetyl)-2-azabicyclo[3.1.0]hexane-3-carboxammide, N-(3-chloro-2-fluorophenylmethyl-d2)], under 1000 nM.
The figure for `CS(=O)(=O)N1CCc2c(n(CC(=O)N3C[C@H](F)C[C@H]3C(=O)NCc3cccc(Cl)c3F)c3ccccc23)C1` [Compound 69, (2S,4R)-N-(3-chloro-2-fluorobenzyl)-4-fluoro-1-(2-(2-(methylsulfonyl)-3,4-dihydro-1H-pyrido[3,4-b]indol-9(2H)-yl)acetyl)pyrrolidine-2-carboxamide] is 1000 to 10000 nM; for `NC(=O)n1cc(NC(=O)N2C[C@H](F)C[C@H]2c2nc3cc(Cl)ccc3[nH]2)c2ccccc21` [Compound 14, 3-((2S,4R)-2-(5-chloro-1H-benzo[d]imidazol-2-yl)-4-fluoropyrrolidine-1-carboxamido)-1H-indole-1-carboxamide] it is 1000 to 10000 nM.
The figure for `NC(c1cn(CC(=O)N2C[C@H](F)C[C@H]2C(=O)NCc2cccc(Cl)c2F)c2ccccc12)C(F)(F)F` (stereo partly drawn) [Compound 78, (2S,4R)-1-(2-(3-(1-amino-2,2,2-trifluoroethyl)-1H-indol-1-yl)acetyl)-N-(3-chloro-2-fluorobenzyl)-4-fluoropyrrolidine-2-carboxamide] is 1000 to 10000 nM.
Take `NC(=O)n1cc(NC(=O)N2C[C@H](F)C[C@H]2c2ncc(-c3cccc(Cl)c3)[nH]2)c2ccccc21` [Compound 10, 3-((2S,4R)-2-(5-(3-chlorophenyl)-1H-imidazol-2-yl)-4-fluoropyrrolidine-1-carboxamido)-1H-indole-1-carboxamide]: the IC50 lay within 1000 to 10000 nM.
For `CC(=O)c1ccc(CC(=O)N2C[C@H](F)C[C@H]2C(=O)NCc2cccc(Cl)c2F)c2ccccc12` [Compound 58, (2S,4R)-1-(2-(4-acetylnaphthalen-1-yl)acetyl)-N-(3-chloro-2-fluorobenzyl)-4-fluoropyrrolidine-2-carboxamide], the IC50 is 1000 to 10000 nM.
Under `CC(=O)c1cn(CC(=O)N2C[C@H](F)C[C@H]2C(=O)NC2CCc3c(Cl)cccc32)c2ccccc12` (stereo partly drawn) [Compound 44, (2S,4R)-1-(2-(3-acetyl-1H-indol-1-yl)acetyl)-N-(4-chloro-2,3-dihydro-1H-inden-1-yl)-4-fluoropyrrolidine-2-carboxamide] stands 1000 to 10000 nM.
In the case of `CCOP(=O)(OCC)c1nn(CC(=O)N2C[C@H](F)C[C@H]2C(=O)NCc2cccc(Cl)c2F)c2cnccc12` [Compound 53, diethyl 1-(2-((2S,4R)-2-(3-chloro-2-fluorobenzylcarbamoyl)-4-fluoropyrrolidin-1-yl)-2-oxoethyl)-1H-pyrazolo[3,4-c]pyridin-3-ylphosphonate], the IC50 was 1000 to 10000 nM.
The figure for `CC(=O)c1cn(CC(=O)N2[C@@H]3CCCC[C@@H]3C[C@H]2C(=O)NCc2cccc(Cl)c2F)c2cc(O)ccc12` [Compound 66, (2S,3aR,7aR)-1-(2-(3-acetyl-6-hydroxy-1H-indol-1-yl)acetyl)-N-(3-chloro-2-fluorobenzyl)octahydro-1H-indole-2-carboxamide] is 1000 to 10000 nM; for `CC(=NC#N)c1cn(CC(=O)N2C[C@H](F)C[C@H]2C(=O)NCc2cccc(Cl)c2F)c2ccccc12` [Compound 32, (2S,4R)-N-(3-chloro-2-fluorobenzyl)-1-(2-(3-(1-(cyanoimino)ethyl)-1H-indol-1-yl)acetyl)-4-fluoropyrrolidine-2-carboxamide] it is 1000 to 10000 nM; for `CC(=O)c1cn(CC(=O)N2C[C@H](F)C[C@H]2c2ncc(-c3cccc(Br)n3)[nH]2)c2ccccc12` [Compound 13, 2-(3-acetyl-1H-indol-1-yl)-1-((2S,4R)-2-(5-(6-bromopyridin-2-yl)-1H-imidazol-2-yl)-4-fluoropyrrolidin-1-yl)ethanone] it is 1000 to 10000 nM.
The figure for `CC(=O)c1cn(CC(=O)N2C[C@H](F)C[C@H]2c2ncc(-c3cccc(Br)n3)[nH]2)c2cc(O)ccc12` [Compound 40, 2-(3-acetyl-6-hydroxy-1H-indol-1-yl)-1-((2S,4R)-2-(5-(6-bromopyridin-2-yl)-1H-imidazol-2-yl)-4-fluoropyrrolidin-1-yl)ethanone] is 1000 to 10000 nM; for `O=C(NCc1cccc(Cl)c1F)[C@@H]1C[C@@H](F)CN1C(=O)CC1=Nc2ccccc2S(=O)(=O)N1` [Compound 49, (2S,4R)-N-(3-chloro-2-fluorobenzyl)-1-(2-(1,1-dioxido-2H-benzo[e][1,2,4]thiadiazin-3-yl)acetyl)-4-fluoropyrrolidine-2-carboxamide] it is 1000 to 10000 nM; for `NC(=O)n1cc(NC(=O)[C@@H]2CCC[C@H]2C(=O)NCc2cccc(Cl)c2F)c2ccccc21` [Compound 23, (1R,2R)-N1-(1-carbamoyl-1H-indol-3-yl)-N2-(3-chloro-2-fluorobenzyl)cyclopentane-1,2-dicarboxamide] it is 1000 to 10000 nM.
The figure for `NC(=O)n1cc(NC(=O)N2c3ccccc3C[C@H]2C(=O)NCc2cccc(Cl)c2F)c2ccccc21` [Compound 2, (S)-N1-(1-carbamoyl-1H-indol-3-yl)-N2-(3-chloro-2-fluorobenzyl)indoline-1,2-dicarboxamide] is 1000 to 10000 nM.
`CC(=O)c1cn(CC(=O)N2CC3(C[C@H]2C(=O)Nc2cccc(OC(F)(F)F)c2F)OCCO3)c2cc(O)ccc12` [Compound 41, (S)-7-(2-(3-acetyl-6-hydroxy-1H-indol-1-yl)acetyl)-N-(2-fluoro-3-(trifluoromethoxy)phenyl)-1,4-dioxa-7-azaspiro[4.4]nonane-8-carboxamide] came in with an IC50 of 1000 to 10000 nM.
The figure for `CC(=O)c1cn(CC(=O)N2C[C@H](F)C[C@H]2C(=O)NC2CCc3ccccc32)c2ccccc12` (some centres unmarked) [Compound 42] is 1000 to 10000 nM.
Under `CCOP(=O)(O)c1nn(CC(=O)N2C[C@H](F)C[C@H]2C(=O)NCc2cccc(Cl)c2F)c2cnccc12` [Compound 60, ethyl hydrogen 1-(2-((2S,4R)-2-(3-chloro-2-fluorobenzylcarbamoyl)-4-fluoropyrrolidin-1-yl)-2-oxoethyl)-1H-pyrazolo[3,4-c]pyridin-3-ylphosphonate] stands 1000 to 10000 nM; under `[2H]C([2H])(NC(=O)[C@@H]1C[C@@H](F)CN1C(=O)Cn1nc(C(N)=O)c2ccncc21)c1cccc(Cl)c1F` [Compound 128, (2S,4R)-1-(2-(3-carbamoyl-1H-pyrazolo[3,4-c]pyridin-1-yl)acetyl)-4-fluoropyrrolidine-2-carboxamide, N-(3-chloro-2-fluorophenylmethyl-d2)], under 1000 nM.
Compound `CCOP(=O)(OCC)c1cc(Cl)cc(NC(=O)[C@@H]2C[C@@H](F)CN2C(=O)Cn2cc(C(C)=O)c3ccccc32)c1` [Compound 59, diethyl 3-((2S,4R)-1-(2-(3-acetyl-1H-indol-1-yl)acetyl)-4-fluoropyrrolidine-2-carboxamido)-5-chlorophenylphosphonate] registered an IC50 of 1000 to 10000 nM.

The record behind these values is US20160361329A1, “COMPOUNDS FOR TREATMENT OF COMPLEMENT MEDIATED DISORDERS” (Achillion Pharmaceuticals, Inc., priority 2014, published 2016).
